Our source for the IC50 values is patent US8143403B2 (Bristol-Myers Squibb Company, priority 2008, dated 2012).

In this assay the target is T1, Human CGRP Receptor (Homo sapiens, UniProt O60894+Q16602).
T1 construct: Crude membranes were prepared from SK-N-MC cells expressing CGRP receptors; endogenous in cells; host or cells: SK-N-MC cells (crude membranes)
T1 sequence (Q16602 23-461): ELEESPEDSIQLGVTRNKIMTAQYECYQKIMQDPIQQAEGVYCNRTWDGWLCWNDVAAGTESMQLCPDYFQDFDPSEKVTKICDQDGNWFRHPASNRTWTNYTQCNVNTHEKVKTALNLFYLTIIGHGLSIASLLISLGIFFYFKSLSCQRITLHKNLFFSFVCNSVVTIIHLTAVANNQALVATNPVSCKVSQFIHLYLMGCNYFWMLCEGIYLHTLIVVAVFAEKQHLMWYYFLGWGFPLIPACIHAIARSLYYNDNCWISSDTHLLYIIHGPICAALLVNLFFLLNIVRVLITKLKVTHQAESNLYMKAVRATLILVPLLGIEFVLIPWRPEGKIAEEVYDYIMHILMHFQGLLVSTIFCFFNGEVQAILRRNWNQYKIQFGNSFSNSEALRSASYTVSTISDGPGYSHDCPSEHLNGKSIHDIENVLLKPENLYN
T1 sequence (O60894 27-148): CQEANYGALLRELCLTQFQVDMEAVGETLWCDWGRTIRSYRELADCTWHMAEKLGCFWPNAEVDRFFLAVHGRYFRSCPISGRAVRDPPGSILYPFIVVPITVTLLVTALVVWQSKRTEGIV
Nature of the assay: Radioligand binding assay, [125I]-CGRP displacement on SK-N-MC membranes. The settings on record: displacement of [125I]-CGRP (18 pM final), 2 h room temperature. Here is the method: Tissue Culture. SK-N-MC cells were grown at 37° C. in 5% CO2 as a monolayer in medium consisting of MEM with Earle's salts and L-glutamine (Invitrogen) supplemented with 10% fetal bovine serum (Invitrogen).
Membrane Preparation. Crude membranes were prepared from SK-N-MC cells expressing CGRP receptors. The cells were rinsed twice with phosphate-buffered saline (155 mM NaCl, 3.3 mM Na2HPO4, 1.1 mM KH2PO4, pH 7.4), and incubated for 5-10 min. at 4° C. in hypotonic lysis buffer consisting of 10 mM Tris (pH 7.4) and 5 mM EDTA. The cells were transferred from plates to polypropylene tubes (16×100 mm) and homogenized using a polytron. Homogenates were centrifuged at 32,000×g for 30 min. The pellets were resuspended in cold hypotonic lysis buffer with 0.1% mammalian protease inhibitor cocktail (Sigma) and assayed for protein concentration. The SK-N-MC homogenate was aliquoted and stored at −80° C. Radioligand Binding Assay. The compounds of invention were solubilized and carried through serial dilutions using 100% DMSO. Aliquots from the compound serial dilutions were further diluted 25 fold into assay buffer (50 mM Tris-Cl pH 7.5, 5 mM MgCl2, 0.005% Triton X-100) and transferred (volume 50 μl) into 96 well assay plates. [^125I]-CGRP (GE Healthcare or Perkin-Elmer) was diluted to 72 pM in assay buffer and a volume of 50 μl was added to each well. SK-N-MC membranes were thawed, diluted in assay buffer with fresh 0.1% mammalian protease inhibitor cocktail (Sigma), and re-homogenized. SK-N-MC homogenate (7 μg/well) was added in a volume of 100 μl. The assay plates were then incubated at room temperature for 2 h. Assays were stopped by addition of excess cold wash buffer (50 mM Tris-Cl pH 7.5, 0.1% BSA) immediately followed by filtration over glass fiber filters (Whatman GF/B) previously soaked in 0.5% PEI. Non-specific binding was defined with 1 μM beta-CGRP (Bachem). Protein bound radioactivity was determined using a gamma or scintillation counter. The resulting data was analyzed using a four parameter competitive binding equation (XLfit v2.0) and the IC50 was defined as the concentration of a compound of invention required to displace 50% of radioligand binding. Final assay concentration of [^125I]-CGRP was 18 pM. […] All compounds of invention were evaluated in at least two separate experiments.
On to `CN(C)c1cnc2c(c1)C[C@H](c1cccc(F)c1F)CC[C@H]2OC(=O)N1CCC(n2c(=O)[nH]c3ncccc32)CC1` [Example 15, (6R,9R)-6-(2,3-difluorophenyl)-3-(dimethylamino)-6,7,8,9-tetrahydro-5H-cyclohepta[b]pyridin-9-yl 4-(2-oxo-2,3-dihydro-1H-imidazo[4,5-b]pyridin-1-yl)piperidine-1-carboxylate], for which the IC50 was found to be 0.98 nM.

`O=C(O[C@@H]1CC[C@@H](c2cccc(F)c2F)Cc2ccc(Cl)nc21)N1CCC(n2c(=O)[nH]c3ncccc32)CC1` [Example 19, (6R,9R)-2-Chloro-6-(2,3-difluorophenyl)-6,7,8,9-tetrahydro-5H-cyclohepta[b]pyridin-9-yl 4-(2-oxo-2,3-dihydro-1H-imidazo[4,5-b]pyridin-1-yl)piperidine-1-carboxylate] came in with an IC50 of 0.76 nM.

`O=C(C[C@@H]1CC[C@H](c2cccc(F)c2F)Cc2cccnc21)N1CCC(n2c(=O)[nH]c3ncccc32)CC1` (relative stereo) [Example 5, 1-(1-(2-((6,9-Cis)-6-(2,3-difluorophenyl)-6,7,8,9-tetrahydro-5H-cyclohepta[b]pyridin-9-yl)acetyl)piperidin-4-yl)-1H-imidazo[4,5-b]pyridin-2(3H)-one]: the IC50 amounted to 4.04 nM.

With `Nc1ccc2c(n1)[C@H](OC(=O)N1CCC(n3c(=O)[nH]c4ncccc43)CC1)CC[C@@H](c1cccc(F)c1F)C2` [Example 17, (6R,9R)-2-Amino-6-(2,3-difluorophenyl)-6,7,8,9-tetrahydro-5H-cyclohepta[b]pyridin-9-yl 4-(2-oxo-2,3-dihydro-1H-imidazo[4,5-b]pyridin-1-yl)piperidine-1-carboxylate], the IC50 was found to be 0.8 nM.

Regarding “(6,9-Trans)-6-(2,3-difluorophenyl)-6,7,8,9-tetrahydro-5H-cyclohepta[b]pyridin-9-yl 2-oxo-1,2-dihydrospiro[benzo[d][1,3]oxazine-4,4′-piperidine]-1′-carboxylate [Example 13]”, the IC50 amounted to 1.55 nM.

Consider `O=C(C[C@H]1CC[C@H](c2cccc(F)c2F)Cc2cccnc21)N1CCC(n2c(=O)[nH]c3ncccc32)CC1` (single isomer, unassigned) [Example 7], for which the IC50 is more than 100 nM.

`O=C(O[C@@H]1CC[C@@H](c2cccc(F)c2F)Cc2cccnc21)N1CCC(n2c(=O)[nH]c3ncccc32)CC1` [Example 21] came in with an IC50 of 0.12 nM. That is a sub-nanomolar value.

The compound `O=C(N[C@@H]1CC[C@@H](c2cccc(F)c2F)Cc2cccnc21)N1CCC(n2c(=O)[nH]c3ncccc32)CC1` (single isomer, unassigned) [Example 8] returned an IC50 of 1.6 nM.

`O=C(O[C@@H]1CC[C@@H](c2cc(F)ccc2F)Cc2cccnc21)N1CCC(n2c(=O)[nH]c3ncccc32)CC1` (racemic) [Example 11, (6,9-trans)-6-(2,5-Difluorophenyl)-6,7,8,9-tetrahydro-5H-cyclohepta[b]pyridin-9-yl 4-(2-oxo-2,3-dihydro-1H-imidazo[4,5-b]pyridin-1-yl)piperidine-1-carboxylate]: the IC50 amounted to 4.14 nM. This IC50 is about 2.6-fold higher than that of the compound before.

In turn, `O=C(O[C@@H]1CC[C@@H](c2cccc(F)c2F)Cc2cccnc21)N1CCC(n2c(=O)[nH]c3ncccc32)CC1` (relative stereo) [Example 2] had an IC50 of 0.23 nM. Against the preceding compound, the IC50 is about 18-fold lower.

For `CN(C)c1ccc2c(n1)[C@H](OC(=O)N1CCC(n3c(=O)[nH]c4ncccc43)CC1)CC[C@@H](c1cccc(F)c1F)C2` [Example 18, (6R,9R)-6-(2,3-difluorophenyl)-2-(dimethylamino)-6,7,8,9-tetrahydro-5H-cyclohepta[b]pyridin-9-yl 4-(2-oxo-2,3-dihydro-1H-imidazo[4,5-b]pyridin-1-yl)piperidine-1-carboxylate], the IC50 worked out at 0.78 nM.

Compound `O=C1CCC(c2cccc(F)c2F)CCC1OC(=O)N1CCC(n2c(=O)[nH]c3ncccc32)CC1` (centres unmarked) [Example 1, 5-(2,3-difluorophenyl)-2-oxocycloheptyl 4-(2-oxo-2,3-dihydro-1H-imidazo[4,5-b]pyridin-1-yl)piperidine-1-carboxylate] returned an IC50 of 2.86 nM.

For `O=C(O[C@@H]1CC[C@@H](c2ccc(F)c(F)c2)Cc2cccnc21)N1CCC(n2c(=O)[nH]c3ncccc32)CC1` (relative stereo) [Example 12, (6,9-Trans)-6-(3,4-Difluorophenyl)-6,7,8,9-tetrahydro-5H-cyclohepta[b]pyridin-9-yl 4-(2-oxo-2,3-dihydro-1H-imidazo[4,5-b]pyridin-1-yl)piperidine-1-carboxylate], the IC50 came to 7.41 nM. This IC50 is about 2.6-fold higher than that of the compound before.

`N#Cc1ccc2c(n1)[C@H](OC(=O)N1CCC(n3c(=O)[nH]c4ncccc43)CC1)CC[C@@H](c1cccc(F)c1F)C2` (relative stereo) [Example 4, (6,9-trans)-2-cyano-6-(2,3-difluorophenyl)-6,7,8,9-tetrahydro-5H-cyclohepta[b]pyridin-9-yl 4-(2-oxo-2,3-dihydro-1H-imidazo[4,5-b]pyridin-1-yl)piperidine-1-carboxylate] showed an IC50 of 0.44 nM. Against the preceding compound, the IC50 is about 17-fold lower.

Regarding `O=C(O[C@@H]1CC[C@@H](c2cccc(F)c2F)Cc2cccnc21)N1CCC(N2CCc3ccccc3NC2=O)CC1` (relative stereo) [Example 3, (6,9-anti)-6-(2,3-difluorophenyl)-6,7,8,9-tetrahydro-5H-cyclohepta[b]pyridin-9-yl 4-(2-oxo-4,5-dihydro-1H-benzo[d][1,3]diazepin-3(2H)-yl)piperidine-1-carboxylate], the IC50 came to 1.25 nM.

`Nc1cnc2c(c1)C[C@H](c1cccc(F)c1F)CC[C@H]2NC(=O)N1CCC(n2c(=O)[nH]c3ncccc32)CC1` [Example 14, N-((6R,9R)-3-amino-6-(2,3-difluorophenyl)-6,7,8,9-tetrahydro-5H-cyclohepta[b]pyridin-9-yl)-4-(2-oxo-2,3-dihydro-1H-imidazo[4,5-b]pyridin-1-yl)piperidine-1-carboxamide] returned an IC50 of 0.25 nM.

In turn, `CC(C)(C)Nc1ccc2c(n1)[C@H](OC(=O)N1CCC(n3c(=O)[nH]c4ncccc43)CC1)CC[C@@H](c1cccc(F)c1F)C2` [Example 16, (6R,9R)-2-(tert-Butylamino)-6-(2,3-difluorophenyl)-6,7,8,9-tetrahydro-5H-cyclohepta[b]pyridin-9-yl 4-(2-oxo-2,3-dihydro-1H-imidazo[4,5-b]pyridin-1-yl)piperidine-1-carboxylate] showed an IC50 of 6.96 nM.

The compound `O=C(O[C@@H]1CC[C@@H](c2ccccc2)Cc2cccnc21)N1CCC(n2c(=O)[nH]c3ncccc32)CC1` (relative stereo) [Example 10, (6,9-Trans)-6-Phenyl-6,7,8,9-tetrahydro-5H-cyclohepta[b]pyridin-9-yl 4-(2-oxo-2,3-dihydro-1H-imidazo[4,5-b]pyridin-1-yl)piperidine-1-carboxylate] displayed an IC50 of 8.89 nM.

For `O=C(C[C@@H]1CC[C@@H](c2cccc(F)c2F)Cc2cccnc21)N1CCC(n2c(=O)[nH]c3ncccc32)CC1` (single isomer, unassigned) [Example 6], the IC50 came out at 0.89 nM.

Consider `O=C(N[C@H]1CC[C@H](c2cccc(F)c2F)Cc2cccnc21)N1CCC(n2c(=O)[nH]c3ncccc32)CC1` [Example 9, N-((6S,9S)-6-(2,3-difluorophenyl)-6,7,8,9-tetrahydro-5H-cyclohepta[b]pyridin-9-yl)-4-(2-oxo-2,3-dihydro-1H-imidazo[4,5-b]pyridin-1-yl)piperidine-1-carboxamide], for which the IC50 was more than 1000 nM.
